Measured values: article PMC10967270, “Intrapulmonary and Systemic Pharmacokinetics of Colistin Following Nebulization of Low-Dose Colistimethate Sodium in Patients with Ventilator-Associated Pneumonia Caused by Carbapenem-Resistant Acinetobacter baumannii” (Antibiotics, 2024)
Where two headings read alike, the source gives them in different places. Positions of bridges follow the written chain, without caps; N, C: chain ends. Non-standard residues stand in square brackets, D forms with d. Residues, ends and D or L forms follow the SMILES beside them. *: point of attachment. X1 = CC[C@H](C)CCCCC(=O)*; Dab = NCC[C@H](N)C(=O)O

Key:
A. baumannii [1] = conditions: among 2879 isolates, EUCAST; cited from earlier work
[2] = Colistin concentration in plasma after CMS nebulization; type: in vivo; conditions: human, inhaled or intranasal, 20 patients
Protocol: (§1) Patients were treated with CMS (Xellia Pharmaceuticals ApS, Copenhagen, Denmark) at a total of 3.75 MIU (equivalent to 300 mg of CMS or 112.5 mg of CBA) administered four times a day at 6 h intervals. CMS was dissolved in 5 mL of normal saline and administered over 30 min through a jet nebulizer (Sileo 54, Macjin Medical, Seoul, Republic of Korea) connected to the ventilator circuit. Bronchoalveolar lavage fluid (BALF) was obtained by instilling 20 mL of normal saline into the right middle lobe or left lingular segmental bronchus using a bronchoscope, followed by immediate aspiration and collection into a syringe. Samples were collected immediately before the nebulization treatment and at 1, 3, and 5 h after the start of the treatment. Blood samples were collected before the nebulization treatment and at 1, 2, 3, and 5 h thereafter. Both BALF and blood samples were centrifuged at 3000× g for 10 min within 1 h of collection and the supernatant was isolated. Samples were then stored in a refrigerator at a temperature below −70 °C.
A validated liquid chromatography–tandem mass spectrometry assay was used to determine colistin concentrations in BALF and plasma samples. The HPLC equipment consisted of an Agilent 1200 series modular system and an Atlantis C18 column (Company, Waters, Milford, MA, USA) (2.1 mm × 150 mm, 3.0 μm). Mobile phases A and B were water and acetonitrile, respectively. Both phases contained 0.1% formic acid. A gradient elution program was started at 10% B, increased to 35% for 1 min, maintained at this composition for 3.8 min, and returned to the initial composition for 5 min to re-equilibrate the column. Mass spectrometry (MS) was performed using a triple-quadruple mass spectrometer (SCIEX QTRAP5500, Applied Biosystems, Foster City, CA, USA) with an electrospray ionization (ESI) interface. The ESI source was set to positive ionization mode. The parent to product transition (m/z) was 578.483→101.071 for colistin A, 585.453→101.071 for colistin B, and 602.527→101.000 for polymyxin B. Data acquisition and processing were performed using the Analyst software (version 1.7.1; Applied Biosystems, Foster City, CA, USA). Stock solutions of colistin and IS were prepared in deionized water at concentrations of 10 mg/mL, and both were stored at −20 °C. Working solutions of colistin were prepared in deionized water (dilutions of 2, 5, 10, 50, 100, 500, and 1000 μg/mL). Calibration standards were prepared by spiking 247.5 μL of drug-free plasma with 2.5 μL of colistin working solution. Low (colistin A; 11.16 ng/mL, colistin B; 48.84 ng/mL), moderate (colistin A; 186 ng/mL, colistin B; 814 ng/mL), and high (colistin A; 1488 ng/mL, colistin B; 6512 ng/mL) concentrations of QC samples were prepared. Sample pretreatment involved a solid phase extraction. A 250 μL aliquot of plasma was pipetted into a 1.5 mL Eppendorf tube, to which 10 μL of IS (10 μg/mL, polymyxin B) and 740 μL of deionized water were added. This mixture was loaded into a cartridge that had been preconditioned twice with 1 mL of methanol and 1 mL of deionized water. After the plasma mixture was loaded, the cartridge was washed with 1 mL of deionized water. One milliliter of methanol including 0.1% formic acid was used for extraction. Extraction liquid was evaporated by vacuum concentrator (Speedvac, Thermo Fisher Scientific Inc., Waltham, MA, USA) at 45 °C for 2.5 h. Samples were reconstituted in 100 μL deionized water containing 0.1% formic acid. […]

[3] = cited from earlier work; for Maximum ELF concentration, median (IQR): 2 MIU CMS
Protocol: The observed median (IQR) peak colistin concentration was 21,950 (10,440–28,389) μg/L in the ELF, while that in plasma was 43.51 (14.23–85.78) μg/L. Boisson et al. reported that, regardless of concentration, a significant adsorption of CMS to the mini-BAL device was not observed in studies utilizing the mini-BAL device. They also noted that non-specific adsorption was not significant at a concentration of 6 mg/L. Consequently, it appears from our study that there was no significant adsorption of CMS [23]. […] These studies measured concentrations of both CMS and colistin in the ELF, assuming equal V/fm for CMS and colistin. In our study, the V/fm of colistin in plasma was estimated at 67.4 L, which is much greater than the 13.7 L reported in Boisson et al.. Gkoufa et al. fixed this distribution volume at 13.7 L based on Boisson et al.. The CL/fm of colistin ... || The PK/PD index for colistin is the area under the free colistin concentration-–time curve at steady state over 24 h divided by the pathogen minimum inhibitory concentration (fAUC/MIC). Since we were unable to obtain MIC values for A. baumannii, we evaluated the relationship between the PK and PD of colistin by comparing the fAUC of each patient in accordance with their clinical outcomes and microbiological outcomes. AUC was calculated by dividing the daily dose by patient, which was the individual post hoc Bayesian estimate of the developed PK model. The bioavailability of colistin ...

A. baumannii [4] = conditions: murine lung infection model; cited from earlier work
[5] = Colistin concentration in epithelial lining fluid (BALF, urea-corrected) after CMS nebulization; type: in vivo, human
Protocol: as §1
A validated liquid chromatography–tandem mass spectrometry assay was used to determine colistin concentrations in BALF and plasma samples. The HPLC equipment consisted of an Agilent 1200 series modular system and an Atlantis C18 column (Company, Waters, Milford, MA, USA) (2.1 mm × 150 mm, 3.0 μm). Mobile phases A and B were water and acetonitrile, respectively. Both phases contained 0.1% formic acid. A gradient elution program was started at 10% B, increased to 35% for 1 min, maintained at this composition for 3.8 min, and returned to the initial composition for 5 min to re-equilibrate the column. Mass spectrometry (MS) was performed using a triple-quadruple mass spectrometer (SCIEX QTRAP5500, Applied Biosystems, Foster City, CA, USA) with an electrospray ionization (ESI) interface. The ESI source was set to positive ionization mode. The parent to product transition (m/z) was 578.483→101.071 for colistin A, 585.453→101.071 for colistin B, and 602.527→101.000 for polymyxin B. Data acquisition and processing were performed using the Analyst software (version 1.7.1; Applied Biosystems, Foster City, CA, USA). Stock solutions of colistin and IS were prepared in deionized water at concentrations of 10 mg/mL, and both were stored at −20 °C. Working solutions of colistin were prepared in deionized water (dilutions of 2, 5, 10, 50, 100, 500, and 1000 μg/mL). Calibration standards were prepared by spiking 247.5 μL of drug-free plasma with 2.5 μL of colistin working solution. Low (colistin A; 11.16 ng/mL, colistin B; 48.84 ng/mL), moderate (colistin A; 186 ng/mL, colistin B; 814 ng/mL), and high (colistin A; 1488 ng/mL, colistin B; 6512 ng/mL) concentrations of QC samples were prepared. Sample pretreatment involved a solid phase extraction. A 250 μL aliquot of plasma was pipetted into a 1.5 mL Eppendorf tube, to which 10 μL of IS (10 μg/mL, polymyxin B) and 740 μL of deionized water were added. This mixture was loaded into a cartridge that had been preconditioned twice with 1 mL of methanol and 1 mL of deionized water. After the plasma mixture was loaded, the cartridge was washed with 1 mL of deionized water. One milliliter of methanol including 0.1% formic acid was used for extraction. Extraction liquid was evaporated by vacuum concentrator (Speedvac, Thermo Fisher Scientific Inc., Waltham, MA, USA) at 45 °C for 2.5 h. Samples were reconstituted in 100 μL deionized water containing 0.1% formic acid. Subsequently, samples were vortexed for 5 min and centrifuged at 13,200 rpm for 10 min, and […] of supernatant was injected into the LC-MS system.
Colistin concentrations, encompassing both colistin A and colistin B, were determined and collectively referred to as “colistin”. The concentration of colistin in the epithelial lining fluid (ELF), termed CELF, was calculated using the formula CELF = CBAL (Ureaplasma/UreaBAL), where CBAL is the colistin concentration measured in BALF. […]

## CC[C@H](C)CCCCC(=O)N[C@@H](CCN)C(=O)N[C@H](C(=O)N[C@@H](CCN)C(=O)N[C@H]1CCNC(=O)[C@H]([C@@H](C)O)NC(=O)[C@H](CCN)NC(=O)[C@H](CCN)NC(=O)[C@H](CC(C)C)NC(=O)[C@@H](CC(C)C)NC(=O)[C@H](CCN)NC1=O)[C@@H](C)O [colistin] (X1-[Dab]T[Dab][Dab][Dab][dL]L[Dab][Dab]T; lactam 4-C)
A. baumannii [1]
  Isolates with a colistin MIC of 1 mg/L, number (%): 1451 (50.4%)
  Isolates with a colistin MIC of 2 mg/L, number (%): 539 (18.7%)
  Isolates with a colistin MIC of 4 mg/L, number (%): 54 (1.88%)
[2]; 1 h after start (time by position in Figure 1c), CMS 0.9375 MIU nebulized over 30 min, LC-MS/MS, read-out: Median colistin concentration in plasma
  level at 1 h: 19.2 ng/mL
[2]; 2 h after start (time by position in Figure 1c), CMS 0.9375 MIU nebulized over 30 min, LC-MS/MS, read-out: Median colistin concentration in plasma
  level at 2 h: 29.8 ng/mL
[2]; 3 h after start (time by position in Figure 1c), CMS 0.9375 MIU nebulized over 30 min, LC-MS/MS, read-out: Median colistin concentration in plasma
  level at 3 h: 37.7 ng/mL
[2]; 5 h after start (time by position in Figure 1c), CMS 0.9375 MIU nebulized over 30 min, LC-MS/MS, read-out: Median colistin concentration in plasma
  level at 5 h: 32.6 ng/mL
[2]; nebulized CMS 0.9375 MIU over 30 min, monitored over 5 h, read-out: Observed peak colistin concentration in plasma, median (IQR)
  Cmax: 43.5 ng/mL
[3]; jet nebulizer
  Maximum ELF concentration, median (IQR): 7.4 (6.2–10.3) mg/L
[3]; vibrating mesh nebulizer
  Maximum ELF concentration, median (IQR): 10.4 (4.7–22.6) mg/L
[3]; Boisson et al.
  CL/fm of colistin in plasma: 53.1 mL/min
  V/fm of colistin in plasma: 13.7 L
  V/fm of colistin in the ELF: 1.2 mL
[3]; Gkoufa et al.
  CL/fm of colistin in plasma: 128 mL/min
  V/fm of colistin in the ELF: 14.5 mL
[3]; assumed from the literature to calculate the PK/PD index
  Bioavailability of colistin: 9%
[3]; between ELF and plasma, Gkoufa et al.
  Intercompartmental CL/fm: 0.372 mL/min
A. baumannii [4]
  fAUC/MIC target values for a 2 log10 kill: 22.5–95.0 mg/L·h
[5]; human, epithelial lining fluid, inhaled or intranasal, 1 h after start (time by position in Figure 1a), CMS 0.9375 MIU nebulized over 30 min, LC-MS/MS, 20 patients, read-out: Median colistin concentration in ELF
  level at 1 h: 11800 ng/mL
[5]; human, epithelial lining fluid, inhaled or intranasal, 3 h after start (time by position in Figure 1a), CMS 0.9375 MIU nebulized over 30 min, LC-MS/MS, 20 patients, read-out: Median colistin concentration in ELF
  level at 3 h: 15400 ng/mL
[5]; human, epithelial lining fluid, inhaled or intranasal, 5 h after start (time by position in Figure 1a), CMS 0.9375 MIU nebulized over 30 min, LC-MS/MS, 20 patients, read-out: Median colistin concentration in ELF
  level at 5 h: 8160 ng/mL
[5]; human, epithelial lining fluid, inhaled or intranasal, at 1 h, median concentrations, nebulized CMS 0.9375 MIU, read-out: Colistin concentration in ELF relative to plasma
  Kp at 1 h: ~614
[5]; human, epithelial lining fluid, inhaled or intranasal, at 3 h, median concentrations, nebulized CMS 0.9375 MIU, read-out: Colistin concentration in ELF relative to plasma
  Kp at 3 h: ~408
[5]; human, epithelial lining fluid, inhaled or intranasal, at 5 h, median concentrations, nebulized CMS 0.9375 MIU, read-out: Colistin concentration in ELF relative to plasma
  Kp at 5 h: ~250
[5]; nebulized CMS 0.9375 MIU over 30 min, monitored over 5 h, 20 patients
  Observed peak colistin concentration in ELF, median (IQR): 21,950 (10,440–28,389) μg/L
